In US20080269343A1, “GALENIC FORMULATIONS OF ORGANIC COMPOUNDS” (priority 2004, published 2008):

Columns and labels:
Format in all cases: in vivo, human
[1] = Single and multiple dose 300 mg pharmacokinetic study in Japanese and Caucasian healthy male subjects (Example 5); conditions: for Cavg^SS / AUC(0-t) / Cmax / AUC: arithmetic mean (SD); for Tmax / AUC(0-t) / Cmax / AUC: male, human, plasma, oral, 300 mg; for Tmax: Median (minimum-maximum); for AUC(0-t): read-out: AUC0-72; for AUC: read-out: AUC0-τ
Experimental: An open label, non-randomized, single center, parallel group single and multiple dose study in healthy male subjects was carried out. Two parallel groups, one Japanese (n=19), the other Caucasian (n=19), age (±5 years) and weight matched (±25%), were enrolled in this study. Each subject participated in a 21-day screening period, a baseline period (Day −1), a 10 day treatment period (Days 1-10) and a study completion evaluation 4-7 days after the last PK sample. Each subject received a single 300 mg oral dose of aliskiren (dosage form 3) on Day 1 with 72 hour PK sampling, followed by multiple (once a day for 7 days) 300 mg oral doses of aliskiren on Days 4 through to 10. All administrations of aliskiren were given following a 10 hour fast. Subjects were domiciled in the study center from Day −1 (baseline) until the 24 hour post last-dose evaluations were completed oh Day 11.
Blood samples were collected to determine the pharmacokinetics following a single oral dose of 300 mg of aliskiren and multiple doses (once daily) of aliskiren 300 mg. Plasma concentrations of aliskiren were used to determine the pharmacokinetic parameters using non-compartmental methods, and the data are summarized in FIGS. 5 and 6, and Tables 4 and 5.

[2] = Steady-state pharmacokinetics of aliskiren 300 mg alone, hydrochlorothiazide interaction study, Day 15 (Example 7); conditions: 300 mg daily, Day 15, healthy volunteers N 22; for AUC / Cmax / Tmax: both sexes, human, in vivo, oral, 300 mg
Experimental: The study employed was an open-label, two-period, multiple dose design to evaluate the pharmacokinetic drug-drug interaction between hydrochlorothiazide (HCTZ) and aliskiren when given alone or in combination to healthy volunteers. After screening, a total of 22 healthy male and female volunteers were enrolled into the study. The subjects were admitted to the study center at least 12 hours prior to the initial dosing of HCTZ for baseline evaluation. If subjects met all eligibility criteria at baseline, they were randomized into the study and confined to the clinic until study completion. All study medications were taken under fasted conditions. The subjects remained in bed for at least 4 hours after dosing on PK sampling days. The study was completed with the end of study evaluations on Day 20, after the last blood sample was collected.
In period 1 (study Days 1-4), subjects received a single 25 mg daily dose of HCTZ. Period 1 was followed by a 4 day washout period, study Days 5-8. In period 2 (study Days 9-19), subjects received 300 mg of aliskiren once a day for a total of 11 days (Days 9-19), with a single 25 mg dose of HCTZ co-administered for 4 days (Days 16-19).
Pharmacokinetic blood sampling for aliskiren alone occurred on study Day 15 up to 24 hours post-dose (5-mL blood samples were collected into lithium heparin tubes on Day 15 of the study at pre-dose, 0.5, 1, 2, 3, 4, 6, 8, 12, 16 and 24 hours after dosing).

[3] = Single-dose 300 mg pharmacokinetic study in healthy and type 2 diabetic subjects (Example 4); conditions: single oral dose 300 mg; for AUC(0-t): read-out: AUC0-96
Experimental: An open label, non-randomized, single center, and parallel group single dose study in healthy and type 2 diabetic subjects was carried out. Two parallel groups, one group of 30 healthy, and one group of 30 type 2 diabetic patients, (age, weight and race matched) were enrolled, and all subjects completed the study in each group. Each subject participated in a 21-day screening period, a baseline period (Day −1), one day treatment period (Day 1) and a study completion evaluation 96 hours after the treatment.
Once eligibility had been confirmed each subject received a single oral dose of 300 mg of aliskiren (dosage form 3) on Day 1 with 96 hour sampling of pharmacokinetic (PK) parameters. Subjects were admitted to the study site at least 12 hours prior to the dosing and were confined to the clinic for at least 48 hours post-dose and were advised to come back for the rest of the PK samples collection. Subjects were to undergo a study completion evaluation on 96 hours post-dose prior to discharge from the study site.
Type 2 diabetic patients had been diagnosed with type 2 diabetes at least 1 year prior to screening, and were otherwise in good health. Healthy subjects were selected to match type 2 diabetes patients with regard to age (±5 yr) and weight (±10 kg).
Blood samples were collected to determine the pharmacokinetics following a single oral dose of 300 mg of aliskiren. Plasma concentrations of aliskiren were used to determine the pharmacokinetic parameters using non-compartmental methods, and the data are summarized in FIG. 4, and Tables 2 and 3.

[4] = steady state, 300 mg once a day, Caucasian subjects
[5] = steady state, 300 mg once a day, Japanese subjects
[6] = Max, type 2 diabetic patients n = 30
[7] = Min, type 2 diabetic patients n = 30
[8] = human, plasma, po, 300 mg, Geometric Mean, healthy subjects n = 30
[9] = human, plasma, po, 300 mg, Geometric Mean, type 2 diabetic patients n = 30
[10] = human, plasma, po, 300 mg, Median, healthy subjects n = 30
[11] = human, plasma, po, 300 mg, Median, type 2 diabetic patients n = 30
[12] = human, plasma, po, 300 mg, arithmetic mean, healthy subjects n = 30
[13] = human, plasma, po, 300 mg, arithmetic mean, type 2 diabetic patients n = 30

COCCCOc1cc(C[C@@H](C[C@H](N)[C@@H](O)C[C@H](C(=O)NCC(C)(C)C(N)=O)C(C)C)C(C)C)ccc1OC [aliskiren, 2(S),4(S),5(S),7(S)—N-(3-amino-2,2-dimethyl-3-oxopropyl)-2,7-di(1-methylethyl)-4-hydroxy-5-amino-8-[4-methoxy-3-(3-methoxy-propoxy)phenyl]-octanamide]
Cavg^SS [1, 4]: 89 (33) ng/mL
Cavg^SS [1, 5]: 105 (49) ng/mL
Tmax ([1]; single dose 300 mg, Caucasian subjects n=19, fasted, read-out: Tmax): 2 h
Tmax ([1]; single dose 300 mg, Japanese subjects n=19, fasted, read-out: Tmax): 2 h
Tmax ([1]; steady state, 300 mg once a day, Caucasian subjects, read-out: Tmax^SS): 2 h
Tmax ([1]; steady state, 300 mg once a day, Japanese subjects, read-out: Tmax^SS): 4 h
AUC(0-t) ([1]; single dose 300 mg, Caucasian subjects n=19): 1120 ng·h/mL
Cmax ([1]; single dose 300 mg, Caucasian subjects n=19, read-out: Cmax): 186 ng/mL
AUC(0-t) ([1]; single dose 300 mg, Japanese subjects n=19): 1390 ng·h/mL
Cmax ([1]; single dose 300 mg, Japanese subjects n=19, read-out: Cmax): 215 ng/mL
AUC [1, 4]: 2140 ng·h/mL
Cmax ([1]; steady state, 300 mg once a day, Caucasian subjects, read-out: Cmax^SS): 321 ng/mL
AUC [1, 5]: 2520 ng·h/mL
Cmax ([1]; steady state, 300 mg once a day, Japanese subjects, read-out: Cmax^SS): 403 ng/mL
Cmin^SS ([2]; Geometric Mean): 32.5 ng/mL
AUCτ ([2]; Max): 3801 ng·h/mL
Cmax^SS ([2]; Max): 872.0 ng/mL
Cmin^SS ([2]; Max): 56.5 ng/mL
tmax^SS ([2]; Max): 6.00 h
Cmin^SS ([2]; Median): 35.4 ng/mL
AUCτ ([2]; Min): 512 ng·h/mL
Cmax^SS ([2]; Min): 27.3 ng/mL
Cmin^SS ([2]; Min): 13.4 ng/mL
tmax^SS ([2]; Min): 0.50 h
Cmin^SS ([2]; arithmetic mean): 35.0 ng/mL
AUC ([2]; Geometric Mean): 2070 ng·h/mL
Cmax ([2]; Geometric Mean): 354 ng/mL
Tmax ([2]; Geometric Mean): 1.84 h
AUC ([2]; Median): 2320 ng·h/mL
Cmax ([2]; Median): 406 ng/mL
Tmax ([2]; Median): 2.24 h
AUC ([2]; arithmetic mean): 2310 ng·h/mL
Cmax ([2]; arithmetic mean): 425 ng/mL
Tmax ([2]; arithmetic mean): 2.23 h
AUC0-96 ([3]; Max, healthy subjects n = 30): 4546 ng·h/mL
AUC0-∞ ([3]; Max, healthy subjects n = 30): 5015 ng·h/mL
Cmax ([3]; Max, healthy subjects n = 30): 979 ng/mL
Tmax ([3]; Max, healthy subjects n = 30): 6.00 h
AUC0-96 [3, 6]: 5662 ng·h/mL
AUC0-∞ [3, 6]: 6171 ng·h/mL
Cmax [3, 6]: 1580 ng/mL
AUC0-96 ([3]; Min, healthy subjects n = 30): 425 ng·h/mL
AUC0-∞ ([3]; Min, healthy subjects n = 30): 482 ng·h/mL
Cmax ([3]; Min, healthy subjects n = 30): 66 ng/mL
Tmax ([3]; Min, healthy subjects n = 30): 0.25 h
AUC0-96 [3, 7]: 431 ng·h/mL
AUC0-∞ [3, 7]: 465 ng·h/mL
Cmax [3, 7]: 80 ng/mL
Tmax [3, 7]: 0.25 h
AUC(0-inf) [3, 8]: 1500 ng·h/mL
AUC(0-t) [3, 8]: 1380 ng·h/mL
Cmax ([3]; human, plasma, po, 300 mg, Geometric Mean, healthy subjects n = 30, read-out: Cmax): 283 ng/mL
Tmax ([3]; human, plasma, po, 300 mg, Geometric Mean, healthy subjects n = 30, read-out: tmax): 1.32 h
AUC(0-inf) [3, 9]: 1740 ng·h/mL
AUC(0-t) [3, 9]: 1590 ng·h/mL
Cmax ([3]; human, plasma, po, 300 mg, Geometric Mean, type 2 diabetic patients n = 30, read-out: Cmax): 322 ng/mL
Tmax ([3]; human, plasma, po, 300 mg, Geometric Mean, type 2 diabetic patients n = 30, read-out: tmax): 1.22 h
AUC(0-inf) [3, 10]: 1340 ng·h/mL
AUC(0-t) [3, 10]: 1260 ng·h/mL
Cmax ([3]; human, plasma, po, 300 mg, Median, healthy subjects n = 30, read-out: Cmax): 278 ng/mL
Tmax ([3]; human, plasma, po, 300 mg, Median, healthy subjects n = 30, read-out: tmax): 1.25 h
AUC(0-inf) [3, 11]: 1900 ng·h/mL
AUC(0-t) [3, 11]: 1610 ng·h/mL
Cmax ([3]; human, plasma, po, 300 mg, Median, type 2 diabetic patients n = 30, read-out: Cmax): 328 ng/mL
Tmax ([3]; human, plasma, po, 300 mg, Median, type 2 diabetic patients n = 30, read-out: tmax): 1 h
AUC(0-inf) [3, 12]: 1780 ng·h/mL
AUC(0-t) [3, 12]: 1640 ng·h/mL
Cmax ([3]; human, plasma, po, 300 mg, arithmetic mean, healthy subjects n = 30, read-out: Cmax): 348 ng/mL
Tmax ([3]; human, plasma, po, 300 mg, arithmetic mean, healthy subjects n = 30, read-out: tmax): 1.97 h
AUC(0-inf) [3, 13]: 2040 ng·h/mL
AUC(0-t) [3, 13]: 1860 ng·h/mL
Cmax ([3]; human, plasma, po, 300 mg, arithmetic mean, type 2 diabetic patients n = 30, read-out: Cmax): 394 ng/mL
Tmax ([3]; human, plasma, po, 300 mg, arithmetic mean, type 2 diabetic patients n = 30, read-out: tmax): 1.62 h
